Measured values from ChEMBL document CHEMBL1201862, “PubChem BioAssay data set” (2004).
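Test compounds were applied to cells in 96-well plates for 48 hours at 5 doses. GI50 = concentration required for 50% inhibition of growth.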 The source made the active and inactive calls. Rule as the data show it: active = GI50 up to about 1.1 µM and inactive = higher.

Experiments:
Experiment in all cases: inhibition of tumour cell growth, NCI panel, 48 h
[1] = tested on: LOX IMVI
[2] = tested on: UO-31
[3] = tested on: DMS-273
[4] = tested on: HCT-116
[5] = tested on: OVCAR-5
[6] = tested on: OVCAR-8
[7] = tested on: HCT-15
[8] = tested on: EKVX
[9] = tested on: NCI-H460
[10] = tested on: SF-268
[11] = tested on: M14
[12] = tested on: SNB-75
[13] = tested on: K562
[14] = tested on: KM12
[15] = tested on: COLO 205

Compound | GI50 [1] | GI50 [2] | GI50 [3] | GI50 [4] | GI50 [5] | GI50 [6] | GI50 [7] [µM] | GI50 [8] | GI50 [9] | GI50 [10] | GI50 [11] | GI50 [12] | GI50 [13] | GI50 [14] | GI50 [15]
CCCCCC(=O)OC[n+]1ccc2c(C)c3[nH]c4ccccc4c3c(C)c2c1 | 0.514 µM (active) | 2.65 µM (inactive) | 0.141 µM (active) | 0.373 µM (active) | 1.28 µM (inactive) | 0.474 µM (active) | 0.389 | 0.628 µM (active) | 0.142 µM (active) | 0.796 µM (active) | 1.42 µM (inactive) | 1.49 µM (inactive) |  |  | 
CN(C(=O)c1cccs1)C(=S)N1CCN(c2ccccn2)CC1 | > 100 µM (inactive) | > 100 µM (inactive) | > 100 µM (inactive) | > 100 µM (inactive) | > 100 µM (inactive) | > 100 µM (inactive) | > 100 |  | > 100 µM (inactive) | > 100 µM (inactive) | > 100 µM (inactive) | > 100 µM (inactive) | > 100 µM (inactive) | > 100 µM (inactive) | > 100 µM (inactive)
C/C(=N\NC(=O)CC(=O)Nc1ccc(C)cc1)c1cc2ccccc2oc1=O | > 100 µM (inactive) | > 100 µM (inactive) | > 100 µM (inactive) | > 100 µM (inactive) |  | > 100 µM (inactive) | > 100 | > 100 µM (inactive) | > 100 µM (inactive) |  | > 100 µM (inactive) | 20.2 µM (inactive) | > 100 µM (inactive) | > 100 µM (inactive) | > 100 µM (inactive)
O=C(O)C1=C(C(=O)O)Oc2ccccc2O1 | > 100 µM (inactive) | > 100 µM (inactive) | > 100 µM (inactive) | > 100 µM (inactive) | > 100 µM (inactive) | > 100 µM (inactive) | > 100 | > 100 µM (inactive) | > 100 µM (inactive) | > 100 µM (inactive) | > 100 µM (inactive) | > 100 µM (inactive) | > 100 µM (inactive) | > 100 µM (inactive) | > 100 µM (inactive)
O=C1CCCCCCCCCCC(=O)N2CCOCCOCCN1Cc1cccc(n1)C2 | > 100 µM (inactive) | > 100 µM (inactive) | > 100 µM (inactive) | > 100 µM (inactive) | > 100 µM (inactive) | > 100 µM (inactive) | > 100 | > 100 µM (inactive) | > 100 µM (inactive) | > 100 µM (inactive) | > 100 µM (inactive) | 56 µM (inactive) | 81.1 µM (inactive) | > 100 µM (inactive) | > 100 µM (inactive)
CC(=O)OC(C)(C)[C@@H]1CC[C@]2(C)/C=C/[C@H](C)C[C@@H](O)C3=C(C)C[C@@H](O3)C12 (stereo not given in full) | > 100 µM (inactive) | > 100 µM (inactive) | > 100 µM (inactive) | > 100 µM (inactive) | > 100 µM (inactive) | > 100 µM (inactive) | > 100 | > 100 µM (inactive) | > 100 µM (inactive) | > 100 µM (inactive) | > 100 µM (inactive) | > 100 µM (inactive) | > 100 µM (inactive) | > 100 µM (inactive) | > 100 µM (inactive)
O=C(COc1ccc(Br)cc1Br)N1N=C(c2ccc([N+](=O)[O-])o2)CC1(O)c1ccccc1 (stereo not given) | 5.47 µM (inactive) | 5.36 µM (inactive) | 12.8 µM (inactive) | 11.9 µM (inactive) | 29.3 µM (inactive) | 9.89 µM (inactive) | 6.19 | 2.79 µM (inactive) | 6.24 µM (inactive) | 12.3 µM (inactive) | 10.1 µM (inactive) | 14.1 µM (inactive) | 4.7 µM (inactive) | 17.4 µM (inactive) | 2.7 µM (inactive)
O=C1/C(=C/c2ccc3c(c2)OCCO3)CCC/C1=C\c1ccc2c(c1)OCCO2 | 8.41 µM (inactive) | 82.4 µM (inactive) | 8.99 µM (inactive) | 2.53 µM (inactive) | 32.9 µM (inactive) | 15.9 µM (inactive) | 24.5 | 51.3 µM (inactive) | 22.8 µM (inactive) | 26.2 µM (inactive) | 19 µM (inactive) | 24.9 µM (inactive) |  | 6.21 µM (inactive) | 15.6 µM (inactive)
CC1C[C@@]2(c3ccccc3)C(=O)CCC[C@H]2N1 (stereo not given in full) |  | > 100 µM (inactive) | > 100 µM (inactive) | > 100 µM (inactive) | > 100 µM (inactive) | > 100 µM (inactive) |  | > 100 µM (inactive) | > 100 µM (inactive) | > 100 µM (inactive) | > 100 µM (inactive) | > 100 µM (inactive) | > 100 µM (inactive) | > 100 µM (inactive) | 
CN(C)CCN(C)CCC(=O)/C=C/c1ccccc1 | 12.6 µM (inactive) | > 64.7 µM (inactive) | 17.4 µM (inactive) | 17.1 µM (inactive) | > 60.1 µM (inactive) | 21.2 µM (inactive) | 21.8 | 32.1 µM (inactive) | > 100 µM (inactive) | 30.5 µM (inactive) | 20.9 µM (inactive) | > 41.5 µM (inactive) | 12.7 µM (inactive) | 20.5 µM (inactive) | 18.7 µM (inactive)
